Experimental data as given in patent US7915012B2, “Methods for screening for inhibitors of TRPV2 activation” (Korea University Industry and Academic Collaboration …, priority 2008, dated 2011).
Entries after “also recorded” stand apart in the source; their conditions may differ.

How the values were obtained:
[1] = Hindpaw licking/flicking behaviors; format: in vivo, mice; settings: 10 minutes
Description: Inflammatory sensitization by probenecid was investigated. Particularly, 50 μl of 1% carrageenan (Sigma Aldrich, USA) was injected to the right hind paws of mice 3 hours before the probenecid injection or 50 μl of CFA (complete Freund's adjuvant; Sigma Aldrich, USA) was injected 24 hours before the probenecid injection. Before the experiment, the mice were adapted for one hour to the experimental environment. […] of vehicle (saline containing 3% DMSO and 0.5% Tween 80) alone or […] of vehicle containing probenecid (20 mM) was injected to the right hind paws of the mice.
The time spent for the hindpaw licking/flicking behaviors in mice were measured according to the method of Bandell M, et al. (Neuron 41:849-857, 2004) and Moqrich A, et al. (Science 307:1468-1472, 2005), for 10 minutes. Statistical data were analyzed by two-tailed, unpaired Student's-t-test and the results were presented by mean ±S.E.M. (***p<0.001, **p<0.01, *p<0.05 and ND, p>0.05).

[2] = system: trigeminal neurons; test: Calcium imaging of cultured trigeminal neurons; format: cell-based, ICR mice; settings: 100 μM probenecid
Description: Trigeminal ganglia were dissected out of decapitated adult ICR mice in cold PBS and treated with 1.5 mg/ml of collagenase/dispase (Roche Diagnostics, USA) at 37° for 45 min, and then treated with 0.25% trypsin (Invitrogen, USA) for 15 min. The trigeminal neurons prepared thereby were then plated onto poly-L-lysinecoated coverslips in DMEM/F12 containing 10% FBS, 1% penicillin/streptomycin and 5 ng/ml of 2.5S NGF (Invitrogen, USA), followed by culture in a CO2 incubator for 48-72 hours.
Calcium imaging was performed with a confocal microscope (LSM5 Pascal, Carl Zeiss, Germany), and time-lapse images (excitation 488 nm/emission 514 nm) were collected every 3 seconds using Carl Zeiss ratio tool software (Carl Zeiss, Germany).
The trigeminal neurons prepared by the same manner as described in Example 2 were delayed-treated with 100 μM probenecid or 4 kinds of TRP activators: TRPM8 activator menthol 400 μM, TRPA1 activator cinnamaldehyde (MP Biomedicals, USA) 300 μM, TRPV1 activator capsaicin (Sigma-Aldrich, USA) 2 μM and TRPV1-3 activator 2-APB 300 μM.
The trigeminal neurons prepared by the same manner as described in Example 2 were treated with 300 μM 2-APB+100 μM probenecid, 300 μM 2-APB+2 μM capsaicin, 300 μM 2-APB+300 μM cinnamaldehyde+2 μM capsaicin, 300 μM 2-APB +2 μM capsaicin +100 μM probenecid, 300 μM 2-APB +400 μM menthol and 300 μM 2-APB, respectively.

SMILES: CCCN(CCC)S(=O)(=O)c1ccc(C(=O)O)cc1 [probenecid]
- hindpaw licking/flicking behavior in normal mice ([1]; 20 mM probenecid injected to the right hind paw): no significant changes in behavior
- hindpaw licking/flicking behavior in mice with inflammation induced by carrageenan ([1]; 1% carrageenan 3 hours before, 20 mM probenecid to the right hind paw): significantly extended behavior time; also recorded: behavial changes were observed
- hindpaw licking/flicking behavior in mice with inflammation induced by CFA ([1]; CFA 24 hours before, 20 mM probenecid to the right hind paw): significantly extended behavior time; also recorded: behavial changes were observed
- calcium influx in a trigeminal neuron group [2]: calcium influx induced
- neurons sensitive to probenecid among neurons responding to capsaicin ([2]; 2 μM capsaicin): 5 out of 111
- share of capsaicin-sensitive neurons that responded to probenecid ([2]; 2 μM capsaicin): 3.5%
- response of 2-APB reactive neurons to probenecid ([2]; 2-APB 300 μM): responded
- response of major capsaicin-sensitive and all capsaicin/cinnamaldehyde-sensitive neuron groups to probenecid ([2]; capsaicin 2 μM, cinnamaldehyde 300 μM): did not exhibit probenecid induced intracellular calcium influx
- response of menthol-reactive TRPM8 positive neurons to probenecid ([2]; menthol 400 μM): did not respond
